Experimental data reported in ChEMBL document CHEMBL2157998, “Synthesis and biological evaluation of new phenothiazine derivatives bearing a pyrazole unit as protein farnesyltransferase inhibitors” (Bioorg Med Chem Lett, 2012).
The source made the active and inactive calls. The calls are words filed in the database; no cut-off is given here.

What was measured:
[1] = tested on: SNB-19; assay: Growth inhibition of human SNB19 cells at 10 uM after 48 hrs by single dose SRB assay; assay type: functional; conditions: SNB-19, 48 h, read-out: GI
[2] = tested on: NCI-H522; assay: Growth inhibition of human NCI-H522 cells at 10 uM after 48 hrs by single dose SRB assay; assay type: functional; conditions: NCI-H522, 48 h, read-out: GI
[3] = biological target: T1, Protein farnesyltransferase (Homo sapiens, UniProt P49354+P49356); assay: Inhibition of recombinant human FTase using dansyl-GCVLS as substrate at 100 uM after 15 mins by fluorimetric analysis; assay type: protein-complex assay
[4] = tested on: SF-295; assay: Growth inhibition of human SF295 cells at 10 uM after 48 hrs by single dose SRB assay; assay type: functional; conditions: SF-295, 48 h, read-out: GI
[5] = tested on: NCI-H226; assay: Growth inhibition of human NCI-H226 cells at 10 uM after 48 hrs by single dose SRB assay; assay type: functional; conditions: NCI-H226, 48 h, read-out: GI
[6] = tested on: UO-31; assay: Growth inhibition of human UO31 cells at 10 uM after 48 hrs by single dose SRB assay; assay type: functional; conditions: UO-31, 48 h, read-out: GI
[7] = biological target: T1, Protein farnesyltransferase; assay: Inhibition of recombinant human FTase using dansyl-GCVLS as substrate after 15 mins by fluorimetric analysis; assay type: protein-complex assay
[8] = tested on: PC-3; assay: Growth inhibition of human PC3 cells at 10 uM after 48 hrs by single dose SRB assay; assay type: functional; conditions: PC-3, 48 h, read-out: GI
[9] = tested on: OVCAR-8; assay: Growth inhibition of human OVCAR8 cells at 10 uM after 48 hrs by single dose SRB assay; assay type: functional; conditions: OVCAR-8, 48 h, read-out: GI
[10] = tested on: SK-MEL-5; assay: Growth inhibition of human SK-MEL-5 cells at 10 uM after 48 hrs by single dose SRB assay; assay type: functional; conditions: SK-MEL-5, 48 h, read-out: GI
[11] = tested on: U-251; assay: Growth inhibition of human U251 cells at 10 uM after 48 hrs by single dose SRB assay; assay type: functional; conditions: U-251, 48 h, read-out: GI
[12] = tested on: OVCAR-3; assay: Growth inhibition of human OVCAR3 cells at 10 uM after 48 hrs by single dose SRB assay; assay type: functional; conditions: OVCAR-3, 48 h, read-out: GI
[13] = tested on: RPMI-8226; assay: Growth inhibition of human RPMI8226 cells at 10 uM after 48 hrs by single dose SRB assay; assay type: functional
[14] = tested on: HCT-15; assay: Growth inhibition of human HCT15 cells at 10 uM after 48 hrs by single dose SRB assay; assay type: functional; conditions: HCT-15, 48 h, read-out: GI
[15] = tested on: ACHN; assay: Growth inhibition of human ACHN cells at 10 uM after 48 hrs by single dose SRB assay; assay type: functional; conditions: read-out: GI
[16] = tested on: A498; assay: Growth inhibition of human A498 cells at 10 uM after 48 hrs by single dose SRB assay; assay type: functional; conditions: A498, 48 h, read-out: GI
[17] = tested on: HL-60(TB); assay: Growth inhibition of human HL-60(TB) cells at 10 uM after 48 hrs by single dose SRB assay; assay type: functional
[18] = tested on: CCRF-CEM; assay: Growth inhibition of human CCRF-CEM cells at 10 uM after 48 hrs by single dose SRB assay; assay type: functional; conditions: read-out: GI
[19] = tested on: MOLT-4; assay: Growth inhibition of human MOLT4 cells at 10 uM after 48 hrs by single dose SRB assay; assay type: functional; conditions: MOLT-4, 48 h, read-out: GI
[20] = tested on: MDA-MB-468; assay: Growth inhibition of human MDA-MB-468 cells at 10 uM after 48 hrs by single dose SRB assay; assay type: functional; conditions: MDA-MB-468, 48 h, read-out: GI
[21] = tested on: NCI/ADR-RES; assay: Growth inhibition of human NCI/ADR-RES cells at 10 uM after 48 hrs by single dose SRB assay; assay type: functional; conditions: read-out: GI
[22] = tested on: EKVX; assay: Growth inhibition of human EKVX cells at 10 uM after 48 hrs by single dose SRB assay; assay type: functional; conditions: read-out: GI
[23] = tested on: SN12C; assay: Growth inhibition of human SN12C cells at 10 uM after 48 hrs by single dose SRB assay; assay type: functional; conditions: read-out: GI
[24] = tested on: SW-620; assay: Growth inhibition of human SW620 cells at 10 uM after 48 hrs by single dose SRB assay; assay type: functional; conditions: SW-620, 48 h, read-out: GI
[25] = tested on: HT-29; assay: Growth inhibition of human HT-29 cells at 10 uM after 48 hrs by single dose SRB assay; assay type: functional; conditions: HT-29, 48 h, read-out: GI
[26] = tested on: LOX IMVI; assay: Growth inhibition of human LOXIMVI cells at 10 uM after 48 hrs by single dose SRB assay; assay type: functional; conditions: read-out: GI
[27] = tested on: HOP-92; assay: Growth inhibition of human HOP92 cells at 10 uM after 48 hrs by single dose SRB assay; assay type: functional
[28] = Growth inhibition of human […] cells at 10 uM after 48 hrs by single dose SRB assay; assay type: functional; conditions: read-out: GI
[29] = tested on: UACC-62; assay: Growth inhibition of human UACC62 cells at 10 uM after 48 hrs by single dose SRB assay; assay type: functional; conditions: UACC-62, 48 h, read-out: GI
[30] = tested on: CAKI-1; assay: Growth inhibition of human Caki1 cells at 10 uM after 48 hrs by single dose SRB assay; assay type: functional; conditions: CAKI-1, 48 h, read-out: GI
[31] = tested on: MDA-MB-231; assay: Growth inhibition of human MDA-MB-231 cells at 10 uM after 48 hrs by single dose SRB assay; assay type: functional; conditions: MDA-MB-231, 48 h, read-out: GI

SMILES: Cc1c2c(nn1CC(=O)N1c3ccccc3Sc3ccccc31)-c1ccccc1C2=O
- inhibition of growth at 10 µM [1]: 35.7%
- inhibition of growth at 10 µM [2]: 9.6%
- inhibition [3]: 67.7%
- inhibition of growth at 10 µM [4]: 35.8%
- inhibition of growth at 10 µM [5]: 25.3%
- inhibition of growth at 10 µM [6]: 29.5%
- IC50 [7]: 3.35 µM
- inhibition of growth at 10 µM [8]: 31%
- inhibition of growth at 10 µM [9]: 28.2%
- inhibition of growth at 10 µM [10]: 51.4%
- inhibition of growth at 10 µM [11]: 24.8%
- inhibition of growth at 10 µM [12]: 29.7%
- growth inhibition (GI) [13]: inactive
- inhibition of growth at 10 µM [14]: 23%
- inhibition of growth at 10 µM [15]: 29.7%
- inhibition of growth at 10 µM [16]: 19.4%
- growth inhibition (GI) [17]: inactive
- inhibition of growth at 10 µM [18]: 12.1%
- inhibition of growth at 10 µM [19]: 25.4%
- inhibition of growth at 10 µM [20]: 37.6%
- inhibition of growth at 10 µM [21]: 33.5%
- inhibition of growth at 10 µM [22]: 39.9%
- inhibition of growth at 10 µM [23]: 34.8%
- inhibition of growth at 10 µM [24]: 23.8%
- inhibition of growth at 10 µM [25]: 17.7%
- inhibition of growth at 10 µM [26]: 54.8%
- growth inhibition (GI) [27]: inactive
- inhibition of growth at 10 µM [28]: 55.7%
- inhibition of growth at 10 µM [29]: 31.2%
- inhibition of growth at 10 µM [30]: 38.3%
- inhibition of growth at 10 µM [31]: 27.8%
